Holding throughout (assay type): functional, cell-based
One assay concerns KB. Description: Antiproliferative activity against human KB cells.
A further assay deals with U-937. The assay is described as follows: Antiproliferative activity against human U937 cells after 96 hrs by celltiter-glo luminescent cell viability assay. The conditions noted are these: U-937, 96 h. In general terms: Cellular ATP, detected with luciferase, serves as a proxy for viable cell number.
For a further assay, the system named is A2780. The assay is described as follows: Antiproliferative activity against human A2780 cells after 96 hrs by celltiter-glo luminescent cell viability assay. The conditions noted are these: A2780, 96 h.
A short description of assay [1]: Antiproliferative activity against HSG cells. The note with it: Homo sapiens.

In general, IC50 refers to the concentration at which inhibition is half-maximal. Read a high IC50 as lower potency.

As for `C[C@H]1O[C@@H](O[C@H]2CC[C@]3(C=O)[C@H]4[C@H](O)C[C@]5(C)[C@@H](C6=CC(=O)OC6)CC[C@]5(O)[C@@H]4CC[C@]3(O)C2)[C@H](O)[C@H](O)[C@H]1O`, it took 74 nM to reach half-maximal inhibition in the assay on KB (IC50).

For `C[C@H]1O[C@@H](O[C@H]2CC[C@]3(CO)[C@H]4[C@H](O)C[C@]5(C)[C@@H](C6=CC(=O)OC6)CC[C@]5(O)[C@@H]4CC[C@]3(O)C2)[C@H](O)[C@H](O)[C@@H]1O[C@@H]1O[C@H](CO)[C@@H](O)[C@@H](O)[C@H]1O` [ELAEODENDROSIDE V], the results for the half-inhibitory concentration (IC50) in the assay with U-937 and with A2780 were 150 nM and 120 nM, respectively.

In the case of `C[C@H]1O[C@@H](O[C@H]2CC[C@]3(C=O)[C@H]4[C@H](O)C[C@]5(C)[C@@H](C6=CC(=O)OC6)CC[C@]5(O)[C@@H]4CC[C@]3(O)C2)[C@H](O)[C@H](O)[C@@H]1O[C@@H]1O[C@H](CO)[C@@H](O)[C@@H](O)[C@H]1O` [ELAEODENDROSIDE W], the IC50 with U-937 was 80 nM; in the assay on A2780 it was 70 nM.

In assay [1], `C[C@H]1O[C@@H](O[C@H]2[C@H](O)[C@H](O)[C@H](O[C@H]3CC[C@]4(C=O)[C@H]5[C@H](O)C[C@]6(C)[C@@H](C7=CC(=O)OC7)CC[C@]6(O)[C@@H]5CC[C@]4(O)C3)O[C@@H]2C)[C@@H](O)[C@@H](O)[C@@H]1O` yielded an IC50 of 49 nM.
